Patent US9522908B2, “Ezrin inhibitors and methods of making and using” (Georgetown University, priority 2010, dated 2016)
pKd: −log10 of the molar value.

Legend:
[1] = system: PKC,τ, PKC,α and PKC,γ; experiment: Radioactive in vitro kinase assay of PKC isoforms with nonspecific substrate; format: biochemical
Experimental: FIG. 2 illustrates NSC305787 and NSC668394 inhibit ezrin T567 phosphorylation. (A) K7M2 metastatic OS cell line was treated with NSC305787 (10 μM) and NSC668394 (10 μM) for 6 hours. […] The effect of NSC305787 and NSC668394 on recombinant ezrin phosphorylation by recombinant PKC, was tested in an in vitro kinase assay. Phoshorylation of ezrin was detected by a phosphospecific antibody following PAGE and immunoblotting. Experiments were repeated three times and densitometric analysis of bands was used for calculation of % inhibition (graphs). Error bars represents s.d. from three independent experiments. Kinase activities of PKC,τ, PKC,α and PKC,γ were also evaluated with a nonspecific substrate in the presence of NSC305787 and NSC668394 by a radioactive in vitro kinase assay. Data analysis was done by using a sigmoidal dose-response equation where log EC50 for each curve with the ezrin substrate and the non-specific substrate were compared to each other (P=0.0118 for NSC305787 and P=0.0084 for NSC668394).
500 ng of recombinant ezrin protein in kinase assay mix (200 μM ATP) was incubated with the compounds at 1-100 μM concentrations for 15 minutes on ice, then 50 ng PKC,τ (Millipore, Billerica, Mass.) was added. Reaction was performed at 30° C. for 30 min and stopped by adding 2× sample buffer. […]

[2] = system: K7M2, K12 and HUVEC cells; experiment: Toxicity to cells at invasion assay concentrations; format: cell-based; conditions: 1 μM and 10 μM; data not shown
Experimental: Chemotaxis experiments were performed in 96 well Boyden chamber as described previously (Chen, K., et al., Pediatr. Blood Cancer, 51, 349-355 (2008)). To measure effect of compounds on cellular toxicity, WST viability assay (Roche, Indianapolis, Ind.) was performed in parallel to chemotaxis experiments.

[3] = target: actin; experiment: SPR binding to actin (negative control); conditions: data not shown
[4] = system: K7M2 cells; experiment: Invasion of HUVEC monolayer by K7M2 cells (ECIS, xCELLigence); format: cell-based; conditions: 1 μM and 10 μM, vs control 1% DMSO
Experimental: FIG. 3 illustrates NSC305787 and NSC668394 inhibit ezrin mediated invasion of OS cells. (A) Endogenous ezrin protein levels in K12 and K7M2 cells are shown. Equal loading is determined by blotting with an actin antibody. […] Error bars represent standard deviation from duplicate data points. The experiments were performed in duplicates. Cell index is a measurement parameter with no units. In this assay a decrease in cell index represents invasion of HUVEC layer by OS cells. It is measured according to the following formula: Cell index=((Rt−R0)/F where, Rt is resistance at time point t, R0 is background resistance (measured with media alone, no cells), and F is frequency at which measurement is taken (10 kHz).
The anti-invasive potential of NSC305787 and NSC668394 were evaluated by using electric cell impedance sensing (ECIS) on a Roche xCELLigence system (Roche, Indianapolis, Ind.). Briefly, HUVEC cells (25,000/well) were seeded in a 96-well plate in EGM-2 media (Lonza, Basel, CH). Following formation of a confluent HUVEC monolayer (app 32 hrs), EGM-2 media was aspirated and a layer of OS cells (10,000 cells/well) was added in DMEM media containing the compounds. This time point was accepted as 0 hr of treatment and invasion was monitored during the following 6 hrs by measuring changes in resistance at the cell-electrode interphase.

[5] = target: T1, PKC,τ (Homo sapiens, UniProt P41743); experiment: SPR direct binding to PKC,τ (Biacore); conditions: data not shown
T1 sequence (P41743 1-596): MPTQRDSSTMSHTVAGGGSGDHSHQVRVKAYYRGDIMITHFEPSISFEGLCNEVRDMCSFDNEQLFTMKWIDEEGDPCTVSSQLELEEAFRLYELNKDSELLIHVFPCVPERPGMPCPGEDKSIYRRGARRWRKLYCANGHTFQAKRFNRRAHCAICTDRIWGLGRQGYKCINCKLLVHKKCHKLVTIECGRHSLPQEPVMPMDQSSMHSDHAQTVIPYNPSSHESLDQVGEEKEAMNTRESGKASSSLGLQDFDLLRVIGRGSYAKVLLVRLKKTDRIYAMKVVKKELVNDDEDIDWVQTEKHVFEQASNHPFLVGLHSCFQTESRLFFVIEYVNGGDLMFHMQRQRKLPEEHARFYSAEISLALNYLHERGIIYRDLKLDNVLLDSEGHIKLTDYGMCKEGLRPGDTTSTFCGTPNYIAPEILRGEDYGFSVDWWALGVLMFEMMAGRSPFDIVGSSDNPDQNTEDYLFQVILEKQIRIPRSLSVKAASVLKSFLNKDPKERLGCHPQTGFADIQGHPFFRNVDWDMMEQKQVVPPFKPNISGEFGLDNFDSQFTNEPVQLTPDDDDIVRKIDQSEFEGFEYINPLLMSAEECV

[6] = system: K7M2 metastatic OS tumor cells; experiment: In vivo experimental lung metastasis model, K7M2 cells; parameters: species or system mice
Experimental: FIG. 6 illustrates NSC305787 and NSC668394 inhibit in vivo OS metastatic growth in lungs. (A) K7M2 metastatic OS tumor cells (1×10^6) were injected via tail vein. Vehicle (1% DMSO), NSC305787 (240 μg/kg) and NSC668394 (226 μg/kg) were injected 5 days a week intraperitoneally. Kaplan-Meier survival curves show percent survival for NSC305787 and NSC668394 treatment over time. Median survival of vehicle, NSC305787 and NSC668394 treated K7M2 cells were 28.5, 50, and 49 days after tumor cell injection. […] (B) Fluorescence pictures of whole lungs are given. […] (C) GFP expressing ezrin independent MNNG, human OS cells were injected to mice and treated with vehicle (1% DMSO), NSC305787 (240 μg/kg) and NSC668394 (226 μg/kg). Survival of each group is not different probably because MNNG is an ezrin independent cell line. Median survival of vehicle, NSC305787 and NSC668394 treated MNNG cells were 50.5, 49, and 48.5 days after tumor cell injection. (D) Fluorescent images of the lung tissues of this group are given.
GFP expressing K7M2 or MNNG tumor cells (1×10^6) were delivered by tail vein to nude mice. One day after injection, vehicle, NSC305787 (240 μg/kg/inj) and […] (226 μg/kg/inj) were injected 5 days a week intraperitoneally.

In the case of `OC(c1cc(C23CC4CC(CC(C4)C2)C3)nc2c(Cl)cc(Cl)cc12)C1CCCCN1` (centres unmarked) [NSC305787], the “concentration to inhibit all three PKC isoforms” value ([1]; nonspecific substrate) was roughly 50 µM, the “fold higher concentration to inhibit PKC isoforms than to inhibit ezrin phosphorylation” value ([1]; nonspecific substrate vs ezrin substrate) was 10 fold and the “toxicity to K7M2, K12 and HUVEC cells” value [2] was “not toxic”. The pKd [3] was 4.04, the “invasion of K7M2 cells through HUVEC monolayer” value [4] was “inhibited invasion” and the pKd [5] was 3.76. For the same molecule, the “number of GFP expressing metastatic foci in lung tissues” value ([6]; K7M2 cells) was “significant decrease” and the “median survival after tumor cell injection” value ([6]; K7M2 cells by tail vein, i.p. 5 days a week, vehicle 28.5 days) was 50 days.
